Reference: patent publication US9044015B2, “Heterocyclic compounds as pesticides” (Bayer CropScience AG, priority 2010, dated 2015)

What was measured:
[1] = system: Myzus persicae; test: Myzus test (spray treatment); format: in vivo; details: foliar, application rate 500 g/ha, sprayed Chinese cabbage leaf discs, all stages of green peach aphid, read-out: efficacy in % (aphids killed)
Description: Solvent 78 parts by weight of acetone • • 1.5 parts by weight of dimethylformamide
Emulsifier: 0.5 part by weight of alkylaryl polyglycol ether
To prepare an appropriate active ingredient preparation, 1 part by weight of active ingredient is mixed with the stated amounts of solvent and emulsifier, and the concentrate is diluted with emulsifier-containing water to the desired concentration.

[2] = physchem
Description: 1) Description of Method for Determination of the log P Values (Formic Aid Method)
Eluents for determination in the acidic range (pH 3.4):
Eluent A: acetonitrile+1 ml of formic acid/liter. Eluent B: water+0.9 ml of formic acid/liter.
The lambda max values were determined in the maxima of the chromatographic signals using the UV spectra from 200 nm to 400 nm.

[3] = reverse-phase C18 HPLC column, pH 3.4, logP (HCOOH), final compounds table, HPLC reverse-phase C18, acidic range pH 3.4, 55° C.

SMILES | chromatographic logP ([2]; pH 3.4, log P (HCOOH)) | chromatographic logP ([2]; pH 3.4, logP (HCOOH)) | chromatographic logP [2, 3] | chromatographic logP ([2]; reverse-phase C18 HPLC column, pH 3.4, log P (HCOOH), preparation examples, HPLC-MS) | pest or weed control at 500 g/ha [1]
CC(=O)NS(=O)(=O)c1cccc(-c2cnc(-c3cccnc3)s2)n1 [Compound 69, N-({6-[2-(Pyridin-3-yl)-1,3-thiazol-5-yl]pyridin-2-yl}sulphonyl)acetamide] | 1.3 | 1.3 |  |  | 100%
CCS(=O)(=O)NC(=O)c1cccc(-c2cnn(-c3cncc(F)c3)c2)n1 [Compound 26] |  | 2.21 |  |  | 100%
CCS(=O)(=O)NC(=O)c1cccc(-c2cnn(-c3cncnc3)c2)n1 [Compound 7] |  | 1.63 |  |  | 100%
CS(=O)(=O)NC(=O)c1nc(-c2cnn(-c3cccnc3)c2)cs1 [Compound 45] |  | 1.16 |  |  | 90%
CS(=O)(=O)NC(=O)c1cccc(-c2nnc(-c3cncc(F)c3)s2)n1 [Compound 3, 6-[5-(5-Fluoropyridin-3-yl)-1,3,4-thiadiazol-2-yl]-N-(methylsulphonyl)pyridine-2-carboxamide] | 1.79 | 1.79 |  |  | 100%
O=C(NS(=O)(=O)CC(F)(F)F)c1cccc(-c2nnc(-c3cncc(F)c3)s2)n1 [Compound 73] |  |  | 2.42 |  | 100%
CC(C)S(=O)(=O)NC(=O)c1cccc(-c2nnc(-c3cncc(F)c3)s2)n1 [Compound 72] |  | 2.31 |  |  | 100%
O=C(NS(=O)(=O)c1ccccc1)c1cccc(-c2cnn(-c3cccnc3)c2)n1 [Compound 32] |  |  | 2.26 |  | 90%
CS(=O)(=O)NC(=O)c1csc(-c2cnn(-c3cncc(F)c3)c2)n1 [Compound 37] |  | 1.66 |  |  | 90%
COCCS(=O)(=O)NC(=O)c1cccc(-c2nnc(-c3cncc(F)c3)s2)n1 [Compound 74] |  | 1.97 |  |  | 90%
CS(=O)(=O)NC(=O)c1cccc(-c2cnc(-c3cccnc3)s2)n1 [Compound 12] |  | 1.56 |  |  | 100%
O=C(NS(=O)(=O)C1CC1)c1cccc(-c2cnn(-c3cncnc3)c2)n1 [Compound 28] |  | 1.76 |  |  | 80%
CN(C)S(=O)(=O)NC(=O)c1cccc(-c2cnc(-c3cccnc3)s2)n1 [Compound 66] |  | 2.01 |  |  | 100%
O=C(NS(=O)(=O)C1CC1)c1cccc(-c2nnc(-c3cncc(F)c3)s2)n1 [Compound 71] |  | 2.14 |  |  | 100%
CC(=O)NS(=O)(=O)c1cccc(-c2cnn(-c3cccnc3)c2)n1 [Compound 41, N-({6-[1-(Pyridin-3-yl)-1H-pyrazol-4-yl]pyridin-2-yl}sulphonyl)acetamide] | 1.17 | 1.17 |  |  | 100%
Cc1nc(-c2cncc(F)c2)sc1-c1cc(C(=O)NS(C)(=O)=O)nn1C [Compound 64] |  | 1.84 |  |  | 100%
CCN(CC)S(=O)(=O)NC(=O)c1cccc(-c2cnn(-c3cncnc3)c2)n1 [Compound 38] |  | 2.36 |  |  | 90%
O=C(NS(=O)(=O)C1CC1)c1cccc(-c2cnn(-c3cccnc3)c2)n1 [Compound 30] |  | 1.85 |  |  | 100%
CN(C)S(=O)(=O)NC(=O)c1cccc(-c2cnn(-c3cccnc3)c2)n1 [Compound 27] |  |  | 1.96 |  | 100%
O=C(NS(=O)(=O)c1ccccc1)c1cccc(-c2cnn(-c3cncnc3)c2)n1 [Compound 23] |  |  | 2.24 |  | 90%
CC(C)(C)S(=O)(=O)NC(=O)c1cccc(-c2nnc(-c3cncc(F)c3)s2)n1 [Compound 77] |  |  | 2.38 |  | 100%
CS(=O)(=O)NC(=O)c1csc(-c2cnn(-c3cccnc3)c2)n1 [Compound 36, N-(Methylsulphonyl)-2-[1-(pyridin-3-yl)-1H-pyrazol-4-yl]-1,3-thiazole-4-carboxamide] | 1.25 | 1.25 |  |  | 100%
Cc1nc(-c2cncc(F)c2)sc1-c1cc(C(=O)NS(C)(=O)=O)n(C)n1 [Compound 63, 3-[2-(5-Fluoropyridin-3-yl)-4-methyl-1,3-thiazol-5-yl]-1-methyl-N-(methylsulphonyl)-1H-pyrazole-5-carboxamide] |  |  | 2.04 | 2.04 | 80%
CCC(=O)NS(=O)(=O)c1cccc(-c2cnn(-c3cccnc3)c2)n1 [Compound 42] |  |  | 1.43 |  | 100%
O=C(NS(=O)(=O)C1CC1)c1cccc(-c2cnn(-c3cncc(F)c3)c2)n1 [Compound 29] |  |  | 2.35 |  | 100%
COCCS(=O)(=O)Nc1cccc(-c2cnn(-c3cccnc3)c2)n1 [Compound 10] |  | 1.43 |  |  | 80%
CCS(=O)(=O)Nc1cccc(-c2cnn(-c3cccnc3)c2)n1 [Compound 19] |  | 1.48 |  |  | 100%
CS(=O)(=O)NC(=O)c1cccc(-c2cnn(-c3cccnc3)c2)n1 [Compound 24] |  | 1.48 |  |  | 100%

Continued, in another order:

chromatographic logP ([2]; pH 3.4, log P (HCOOH)) | chromatographic logP ([2]; pH 3.4, logP (HCOOH)) | chromatographic logP [2, 3] | chromatographic logP ([2]; reverse-phase C18 HPLC column, pH 3.4, log P (HCOOH), preparation examples, HPLC-MS) | SMILES | pest or weed control at 500 g/ha [1]
 | 2.44 |  |  | O=C(NS(=O)(=O)Cc1ccccc1)c1cccc(-c2cnn(-c3cccnc3)c2)n1 [Compound 35] | 100%
 | 3.47 |  |  | CC(C1CC1)N(C)S(=O)(=O)NC(=O)c1cccc(-c2cnc(-c3cncc(F)c3)s2)n1 (centres unmarked) [Compound 61] | 100%
 |  | 1.95 |  | CS(=O)(=O)NC(=O)c1cccc(-c2cnc(-c3cncc(C#N)c3)s2)n1 [Compound 51] | 100%
 |  | 2.28 |  | O=C(NS(=O)(=O)Cc1ccccc1)c1cccc(-c2cnn(-c3cncnc3)c2)n1 [Compound 34] | 90%
 |  | 2.4 |  | CS(=O)(=O)NC(=O)c1cccc(-c2cnc(-c3cncc(Cl)c3)s2)n1 [Compound 17] | 100%
 |  | 2.61 |  | CC(C)S(=O)(=O)NC(=O)c1cccc(-c2cnc(-c3cncc(F)c3)s2)n1 [Compound 20] | 100%
 | 2.58 |  |  | O=C(NS(=O)(=O)CC(F)(F)F)c1cccc(-c2cnc(-c3cncc(F)c3)s2)n1 [Compound 57] | 100%
 | 2.97 |  |  | O=C(NS(=O)(=O)Cc1ccccc1)c1cccc(-c2cnc(-c3cncc(F)c3)s2)n1 [Compound 21] | 80%
 |  | 2.27 |  | CN(C(=O)c1cccc(-c2cnc(-c3cncc(F)c3)s2)n1)S(C)(=O)=O [Compound 52] | 100%
 |  | 2.19 |  | COCCS(=O)(=O)NC(=O)c1cccc(-c2cnc(-c3cncc(F)c3)s2)n1 [Compound 55] | 100%
 | 2.44 |  |  | O=C(NS(=O)(=O)C1CC1)c1cccc(-c2cnc(-c3cncc(F)c3)s2)n1 [Compound 6] | 100%
 |  | 2.33 |  | CCS(=O)(=O)NC(=O)c1cccc(-c2cnc(-c3cncc(F)c3)s2)n1 [Compound 18] | 100%
 |  | 3 |  | Cc1noc(C)c1S(=O)(=O)NC(=O)c1cccc(-c2cnc(-c3cncc(F)c3)s2)n1 [Compound 58] | 100%
 |  | 2.94 |  | O=C(NS(=O)(=O)c1ccccc1)c1cccc(-c2cnc(-c3cncc(F)c3)s2)n1 [Compound 13] | 100%
 | 2.56 |  |  | C#CCN(C(=O)c1cccc(-c2cnc(-c3cncc(F)c3)s2)n1)S(C)(=O)=O [Compound 68] | 100%
 |  | 2.28 |  | CS(=O)(=O)N(CC#N)C(=O)c1cccc(-c2cnc(-c3cncc(F)c3)s2)n1 [Compound 65] | 90%
 | 2.82 |  |  | O=C(NS(=O)(=O)c1ccccc1)c1cccc(-c2cnn(-c3cncc(F)c3)c2)n1 [Compound 31] | 100%
